Measurements reported in patent US10646478B2, “Methods for treatment of melanoma” (CHILDREN'S MEDICAL CENTER CORPORATION, priority 2011, dated 2020).
Each block holds one molecule with its values, some of them ahead of it.

Columns and labels:
[1] = system: neural crest stem cells (NCSCs) from fetal (E14.5) rat gut; test: Rat neural crest stem cell assays (self-renewal, colony size, differentiation); format: cell-based
Method: Enteric NCSCs from the fetal (E14.5) rat gut were isolated using flow cytometry to select the 1%-2% of cells expressing the highest levels p75 and α4 integrin as previously described^9. Cells were plated at clonal density in two wells/treatment and cultured in self-renewal medium for 8 days in LEF, A771726 or the vehicle (DMSO) followed by differentiation medium+/−LEF, A771726 or DMSO for 6 days. Cultures were fixed in 4% PFA then stained with antibodies against peripherin, GFAP, and SMA to identify neurons (N), glia (G) and myofibroblasts (M) respectively (U=unstained cells). A total of 3 to 4 independent experiments were performed, and differences measured by ANOVA followed by Bonferonni posthoc comparison. Self-renewal medium contains: DMEM-low glucose, 15% Chick Embryo Extract (CEE), Penn/Strep (P/S), 1% N2 supplement, 2% B27 supplement, 110 nM Retinoic Acid, 50 μM 2-mercaptoethanol 20 ng/ml bFGF, and 20 ng/ml IGF-1. Differentiation medium is the same except it contains 1% CEE, 10 ng/ml bFGF and no IGF-1. Differences between groups were calculated using ANOVA followed by posthoc Sheffe.
Dissociated fetal rat gut cells were plated at clonal density in non-adherent conditions in self-renewal medium with LEF, a77 or DMSO for 10 days^10. Three to five primary neurospheres per treatment were individually re-plated in adherent conditions with LEF, a77 or DMSO and after three days were dissociated into a single cell suspension using trypsin and collagenase IV. Dissociated cells from each neurosphere were re-plated in non-adherent conditions without LEF or a77 and after 10 days, the number of secondary neurospheres were counted and compared. To assess the number of multipotent primary and secondary neurospheres, a subset of neurospheres were plated adherently for 8 days in self-renewal medium followed by 6 days in differentiation medium. Cultures were fixed in 4% PFA and stained with antibodies against peripherin, GFAP, and SMA to identify neurons (N), glia (G) and myofibroblasts (M) respectively. A total of 5 independent experiments were analyzed, and the number of multipotent secondary neurospheres on a given day are normalized to the DMSO control wells, and differences calculated by ANOVA.

[2] = system: crestin+ neural crest progenitors; test: In situ hybridization (ISH) for crestin in zebrafish embryos (chemical screen for suppressors of neural crest development); format: in vivo; conditions: for rescue of neural crest population (crestin ISH): in the presence of leflunomide, A771726 or DH #1
Method: The screen was performed essentially as previously described^31. In brief, WT embryos were collected, staged and then plated at a density of 10 embryos per well in a […] tissue culture plate in 200 ul of E3 water. At 50% epiboly, 100 ul of a 3× chemical stock was added to each well using a Hamilton liquid handling robot, yielding a final 1× concentration. For the majority of the chemicals in the library, this yielded a concentration of ˜33 uM. The libraries used were the BIOMOL 480, Sigma LOPAC 1280, and selected additional compounds obtained through the Children's Hospital Boston Chemical Screening facility. Compounds known to affect pigmentation in Xenopus were obtained from a screen previously described^32, 33. After treatment, embryos were rinsed in E3 water, pronase treated to remove chorions, washed 4× in E3 and 1× in PBT, and then fixed in 4% PFA for 24 hours. Fixed embryos were changed to 100% methanol 24 h later, and kept until the time of ISH.
Embryos underwent automated ISH using a Biolane HTI robot with a crestin riboprobe as previously described^31. All wells were manually scored by eye, assigning a score within a range of 1 (no crestin staining) to 3 (no change in crestin) to 5 (marked increase in crestin). Note was also taken of chemicals that affected migratory patterns in both A-P and D-V directions, and overall morphology. […] All hits were validated in larger, independent clutches of 100-200 embryos using chemicals obtained from independent suppliers.

human DHODH = human DHODH (Homo sapiens, UniProt Q02127); test: In vitro DHODH assay (DCIP reduction), human enzyme; format: biochemical; conditions: FIG. 11
human DHODH, sequence (Q02127 whole entry): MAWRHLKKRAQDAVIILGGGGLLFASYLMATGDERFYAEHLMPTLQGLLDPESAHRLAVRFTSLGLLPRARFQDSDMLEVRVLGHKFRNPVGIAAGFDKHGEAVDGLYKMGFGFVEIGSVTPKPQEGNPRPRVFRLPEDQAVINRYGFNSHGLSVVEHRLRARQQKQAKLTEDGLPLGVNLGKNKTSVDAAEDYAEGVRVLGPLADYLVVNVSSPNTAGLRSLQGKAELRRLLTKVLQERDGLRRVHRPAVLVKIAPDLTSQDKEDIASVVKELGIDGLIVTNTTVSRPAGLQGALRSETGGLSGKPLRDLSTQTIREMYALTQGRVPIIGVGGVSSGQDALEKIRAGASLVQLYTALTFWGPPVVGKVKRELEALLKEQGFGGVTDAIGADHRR
Method: (§1) The DHODH activity assay monitored the reduction of 2,6-dichloroindophenol (DCIP) and was conducted in 50 μl of 100 mM HEPES (pH 8.0) containing 150 mM NaCl, 5% glycerol, 0.05% Triton X-100, 175 μM L-DHO, 18 μM decylubiquinone (CoQD), and 95 μM DCIP, arrayed in a 384-well format. The concentrations of enzymes used were as follows: P. falciparum 12.5 nM, human 7 nM. Following a 20 minute incubation at room temperature the absorbance was measured at 600 nm (Envision, PerkinElmer).

ventral melanocytes = test: Ventral melanocytes in Xenopus embryos; format: in vivo; conditions: stage 38 embryos
P. falciparum DHODH = biological target: T1, P. falciparum DHODH (Plasmodium falciparum, UniProt Q08210); test: In vitro DHODH assay (DCIP reduction), malarial enzyme; format: biochemical; conditions: FIG. 11
T1 sequence (Q08210 24-569): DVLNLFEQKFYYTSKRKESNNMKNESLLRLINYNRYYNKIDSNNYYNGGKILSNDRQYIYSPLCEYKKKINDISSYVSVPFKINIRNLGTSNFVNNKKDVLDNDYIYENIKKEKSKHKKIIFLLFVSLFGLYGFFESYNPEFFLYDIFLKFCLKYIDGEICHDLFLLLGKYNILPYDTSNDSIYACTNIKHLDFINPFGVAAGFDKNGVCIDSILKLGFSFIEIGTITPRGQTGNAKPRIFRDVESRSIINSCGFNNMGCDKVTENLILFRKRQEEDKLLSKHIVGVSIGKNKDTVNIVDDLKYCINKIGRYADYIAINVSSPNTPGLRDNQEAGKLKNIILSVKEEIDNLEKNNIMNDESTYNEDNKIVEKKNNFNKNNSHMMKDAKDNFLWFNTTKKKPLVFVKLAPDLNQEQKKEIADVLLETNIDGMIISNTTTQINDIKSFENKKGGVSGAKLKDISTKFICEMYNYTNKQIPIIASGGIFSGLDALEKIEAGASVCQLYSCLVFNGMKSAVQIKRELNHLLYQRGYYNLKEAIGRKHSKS
Method: as §1

A375 melanoma cells = test: In vivo xenograft study of A375 cells in nude mice; design: species or system mouse; conditions: daily i.p.; PLX4720 2.5 mg/kg, Leflunomide 7.5 mg/kg; DMSO 7.4+/−1.3-fold
Method: The A375 cell line was chosen for xenografts based on prior experience with PLX4720 in this line. Cells were grown to 60-70% confluence, trypsinized and 3.5×10^5 cells were transplanted into the right flank of nude mice in a volume of 200 ul. […] Tumors were measured with digital calipers on day 4, 7 and 12 and growth rate was compared to the tumor size on day 0. Growth rates were compared between DMSO, PLX, LEF or […] using ANOVA with repeated measures to identify significant interactions. For the day 12 data, differences between the groups were compared using ANOVA followed by posthoc Tukey's least-squared difference.

[3] = system: human melanoma cell lines (A375, Hs.294t, RPMI7951); test: In vitro melanoma proliferation assay (CellTiterGlo); format: cell-based; conditions: RPMI7951 (BRAFV600E)
Method: (§2) Human melanoma cell lines (A375, RPMI7951, Hs.294T, MAMLE-3M) were obtained from the American Type Culture Collection. The 8988 cell line was provided by Alec Kimmelman at Dana Farber, and the PANC1 and MDA-231-MB lines were provided by Rania Hartouche at Harvard. Cells were cultured in DMEM/10% FCS at 37 C, 5% CO2. For proliferation assays, 96-well clear bottom plates were used to plate cells at a density of 5,000 cells/well (RPMI7951 and A375) or 10,000 cells/well (MAMLE-3M-3M and Hs.294T) in 100 ul containing indicated concentrations of A771726 or PLX4720 or DMSO. All conditions were tested in triplicate. Media was changed at day 2, and proliferation rate was measured at day 4 using the CellTiterGlo assay kit (Promega). All values are expressed are the % of luciferase relative to the DMSO control well. Differences between groups were statistically analyzed using a generalized linear ANOVA model taking into account factors of PLX4720, A771726 and dose. IC50's were calculated using a log-logistic model.

[4] = system: pancreatic cancer (8988, PANC1) and breast cancer (MDA-MD-231) cell lines; test: In vitro proliferation assay in non-melanoma cell lines; format: cell-based, human; conditions: BRAF WT; 8988, PANC1, MDA-MD-231
Method: as §2

SMILES: C/C(O)=C(\C#N)C(=O)Nc1ccc(C(F)(F)F)cc1 [A771726, teriflunomide]
- colony size reduced compared to controls [1]: 24%
- number of self-renewing NCSCs from primary stem cell colonies [1]: 35+/−6.16 % of controls

- inhibition of purified malarial DHODH (P. falciparum DHODH): strong inhibition of both enzymes
SMILES: O=C(O)c1cc(-c2ccc(-c3ccc(-c4cc(C(=O)O)c5cc(Cl)ccc5n4)cc3)cc2)nc2ccc(Cl)cc12 [NSC210627]
- crestin expression by ISH ([2]; zebrafish embryos, 50% epiboly to 24 hpf): strongly abrogated expression of crestin
- inhibition of purified human DHODH (human DHODH): strong inhibition of both enzymes, at lower concentrations in the human versus malarial forms
- ventral melanocytes in Xenopus embryos (ventral melanocytes): reduction of ventral melanocytes

SMILES: CCCS(=O)(=O)Nc1ccc(F)c(C(=O)c2c[nH]c3ncc(Cl)cc23)c1F [PLX4720]
- tumor growth at 12 days post-treatment (A375 melanoma cells): 5.7+/−0.16 fold
- sensitivity of RPMI7951 to the BRAF inhibitor [3]: significantly less sensitive than the other tested cell lines
- proliferation of non-melanoma cell lines [4]: no effect

SMILES: C[C@@]1(CO)[C@H](O)CC[C@@]2(C)[C@H]1CC[C@H]1C[C@@H]3C[C@@]12CC[C@]3(O)CO [aphidicolin]
- rescue of neural crest population (crestin ISH) [2]: rescue of the neural crest population

SMILES: CCCCCCCCCCC1=C(C)C(=O)C(OC)=C(OC)C1=O [decylubiquinone]
- rescue of neural crest population (crestin ISH) [2]: rescue of the neural crest population

SMILES: CC(=O)[C@H]1CC[C@H]2[C@@H]3CCC4=CC(=O)CC[C@]4(C)[C@H]3CC[C@]12C [progesterone]
- rescue of neural crest population (crestin ISH) [2]: rescue of the neural crest population
